From EPA's ToxRefDB 2 come the findings set out here.

The test system of data set [1] is rat. The following applies: Other (NonGuideline or Guideline Not Listed), sprague dawley, Oral, Gavage/Intubation, dose end: 7 day, group: cannot be grouped.
The test system of data set [2] is rat. The following applies: Other (NonGuideline or Guideline Not Listed); sprague dawley; Oral; Gavage/Intubation; dose end: 5 day; group: cannot be grouped; systemic / clinical chemistry / alanine aminotransferase (alt/sgpt) / alanine aminotransferase (alt/sgpt) + systemic / clinical chemistry / ….
Data set [3] deals with primate. The following applies: Other (NonGuideline or Guideline Not Listed); rhesus; Oral; Gavage/Intubation; dose end: 8 day; group: cannot be grouped; systemic / clinical chemistry / alanine aminotransferase (alt/sgpt) / alanine aminotransferase (alt/sgpt) + systemic / clinical chemistry / ….
The test system of data set [4] is rat. The following applies: Sub-acute repeat dose toxicity; sprague dawley; Oral; Gavage/Intubation; dose end: 6 day; group: systemic; systemic / clinical chemistry / alanine aminotransferase (alt/sgpt) / alanine aminotransferase (alt/sgpt) + systemic / clinical chemistry / ….
Data set [5] concerns rat. The following applies: Sub-acute repeat dose toxicity; sprague dawley; Oral; Gavage/Intubation; dose end: 16 day; group: systemic; systemic / organ weight / liver / absolute + systemic / organ weight / liver / relative to body weight + systemic / organ weight / liver / ….
The subject of data set [6] is dog. The conditions noted are these: Chronic toxicity, beagle, Oral, Feed, dose end: 52 week, group: systemic.
Data set [7] concerns dog. The conditions noted are these: Subchronic oral toxicity in nonrodent, beagle, Feed, dose end: 13 week, group: systemic.
The test system of data set [8] is rat. The conditions noted are these: Combined chronic toxicity/carcinogenicity, fischer, Oral, Feed, dose end: 2 year, group: systemic.
Data set [9] deals with rat. The conditions noted are these: Subchronic oral toxicity in rodents, fischer, Feed, dose end: 13 week, group: systemic.
Data set [10] has as its system rat. The conditions noted are these: Multigenerational reproductive toxicity study, other, Oral, Feed, dose end: 2 generation.
The test system of data set [11] is mouse. The conditions noted are these: Subchronic oral toxicity in rodents, cd1, Feed, dose end: 13 week, group: systemic, systemic / clinical chemistry / alkaline phosphatase (alp/alk) / alkaline phosphatase (alp/alk) + systemic / organ weight / liver / nos + ….
Where [12] appears, read: systemic / clinical chemistry / alkaline phosphatase (alp/alk) / alkaline phosphatase (alp/alk) + systemic / clinical chemistry / glucose / ….
Setting [13] is: systemic / clinical chemistry / glucose / glucose + systemic / pathology gross / liver / discolored + systemic / pathology microscopic / ….
The mark [14] stands for this setting: systemic / pathology microscopic / kidney / hyperplasia + systemic / in life observation / body weight / body weight gain + systemic / in ….
Where [15] appears, read: systemic / pathology microscopic / kidney / crystals + systemic / pathology microscopic / kidney / hyperplasia + systemic / organ weight / ….
Where [16] appears, read: systemic / in life observation / body weight / body weight + systemic / in life observation / body weight / body weight gain + systemic / ….
The mark [17] stands for this setting: systemic / clinical chemistry / albumin / albumin + systemic / clinical chemistry / cholesterol / cholesterol + systemic / clinical ….
The mark [18] stands for this setting: group: offspring, systemic / in life observation / body weight / offspring (pup) weight gain.
Setting [19] is: group: parental, systemic / organ weight / liver / relative to body weight.
Setting [20] is: group: parental, systemic / pathology microscopic / kidney / crystals + systemic / pathology microscopic / kidney / degeneration + systemic / pathology ….

In the case of `CCn1nc(Cc2ccccc2)cc1C1CCN(C[C@H]2C[C@H](N(C)[C@@H](C(=O)O)C(C)C)C[C@@H]2c2cccc(F)c2)CC1` [MK-578], the LOAEL in data set [1] (setting [12]) is greater than 250 mg/kg/day; in [2], greater than 500 mg/kg/day; in data set [3], greater than 200 mg/kg/day; in data set [4], greater than 500 mg/kg/day; in [5], greater than 100 mg/kg/day. Also, the NOAEL was no less than 250 mg/kg/day in data set [1] (setting [12]); no less than 500 mg/kg/day in data set [2]; no less than 200 mg/kg/day in data set [3]; no less than 500 mg/kg/day in data set [4]; no less than 100 mg/kg/day in data set [5]. Moreover, the LEL in data set [1] (setting [13]) came out at 100 mg/kg/day; in [2], 250 mg/kg/day; in data set [3] it was 200 mg/kg/day; in data set [4], 500 mg/kg/day; in data set [5], 100 mg/kg/day. Besides, the NEL in data set [1] (setting [13]) is less than 100 mg/kg/day; in data set [2] it was less than 250 mg/kg/day; in [3] it was less than 200 mg/kg/day; in [4] it was less than 500 mg/kg/day; in data set [5], 30 mg/kg/day.
In the case of `COc1cnc(OC)n2nc(NS(=O)(=O)c3c(OCC(F)F)cccc3C(F)(F)F)nc12` [Penoxsulam], the LOAEL stood at 46.2 mg/kg/day in data set [6] (systemic / pathology microscopic / kidney / hyperplasia); 49.4 mg/kg/day in data set [7] (systemic / pathology microscopic / kidney / crystals + systemic / pathology microscopic / kidney / hyperplasia); 254 mg/kg/day in [8] (setting [16]); 263 mg/kg/day in data set [9] (setting [17]); 300 mg/kg/day in [10] (setting [18]); 100 mg/kg/day in data set [10] (setting [20]). Besides, the LOAEL in data set [11] was greater than 1030 mg/kg/day. For the same compound, the LEL came out at 46.2 mg/kg/day in data set [6] (setting [14]); 49.4 mg/kg/day in data set [7] (setting [15]); 50.9 mg/kg/day in data set [8] (systemic / pathology microscopic / kidney / hyperplasia + systemic / in life observation / clinical signs / perineal soiling); 52.3 mg/kg/day in [9] (systemic / in life observation / clinical signs / perineal soiling); 100 mg/kg/day in [10] (group: offspring, developmental / developmental landmark / preputial separation / preputial separation); 30 mg/kg/day in data set [10] (setting [19]). In data set [11], the LEL was 511 mg/kg/day. Besides, the NEL in data set [6] (setting [14]) was 14.7 mg/kg/day; in data set [7] (setting [15]), 17.8 mg/kg/day; in [8] (setting [16]) it was 5.1 mg/kg/day; in [9] (systemic / in life observation / clinical signs / perineal soiling + systemic / hematology / blood clotting / blood clotting - prothrombin …), 5.2 mg/kg/day; in [10] (group: offspring, systemic / in life observation / body weight / offspring (pup) weight gain + developmental / developmental landmark / preputial separation…) it was 30 mg/kg/day; in data set [10] (setting [19]) it was less than 30 mg/kg/day. Also, in data set [11], the NEL worked out at 102 mg/kg/day. The NOAEL in data set [6] (setting [14]) was 14.7 mg/kg/day; in data set [7] (setting [15]) it was 17.8 mg/kg/day; in data set [8] (setting [16]) it was 50.9 mg/kg/day; in data set [9] (setting [17]) it was 53.3 mg/kg/day; in [10] (setting [18]), 100 mg/kg/day; in data set [10] (setting [20]), 30 mg/kg/day. Also, the NOAEL in data set [11] was no less than 1030 mg/kg/day.
